From patent US20160251332A1, “Herbicidal Compounds” (SYNGENTA PARTICIPATIONS AG, priority 2013, published 2016)

What follows are molecules tested on Amaranthus retroflexus (assay: Pre-emergence herbicidal activity, AMARE). Conditions: Application pre-emergence, 1000 g/Ha, evaluated after 13 days, scale 0-5.
Format: in vivo
Experimental: (§1) Seeds of a variety of test species were sown in standard soil in pots. After cultivation for one day (pre-emergence) under controlled conditions in a glasshouse (at 24/16° C., day/night; 14 hours light; 65% humidity), the plants were sprayed with an aqueous spray solution derived from the formulation of the technical active ingredient in acetone/water (50:50) solution containing 0.5% Tween 20 (polyoxyethelyene sorbitan monolaurate, CAS RN 9005-64-5). The test plants were then grown in a glasshouse under controlled conditions (at 24/16° C., day/night; 14 hours light; 65% humidity) and watered twice daily. After 13 days, the test was evaluated (5=total damage to plant; 0=no damage to plant).
`CN1CC(O)N(c2cc(C(F)(F)F)c(-c3ccc(Cl)nc3)cn2)C1=O` (stereo not drawn) [Compound A21] gave an AMARE damage score of 5. For `CC(=O)Nc1ccccc1-c1cnc(N2C(=O)N(C)CC2O)cc1C(F)(F)F` (stereo not drawn) [Compound A35], the AMARE damage score was 5. For `CN1CC(O)N(c2cc(C(F)(F)F)c(-c3cncc(Cl)c3)cn2)C1=O` (stereo not drawn) [Compound A22], the AMARE damage score was 5. Work on `COc1ccc(-c2cnc(N3C(=O)N(C)CC3O)cc2C(F)(F)F)c(OC)n1` (stereo not drawn) [Compound A25] yielded an AMARE damage score of 5. `CN1CC(O)N(c2cc(C(F)(F)F)c(-c3cnn(C)c3)cn2)C1=O` (stereo not drawn) [Compound A28] was tested, and the AMARE damage score was 5. For `CN1CC(O)N(c2cc(C(F)(F)F)c(-c3ccc(F)nc3)cn2)C1=O` (stereo not drawn) [Compound A32], the AMARE damage score was 5.

The molecules below were run on Echinochloa crus-galli (assay: Pre-emergence herbicidal activity, ECHCG). Conditions: Application pre-emergence, 1000 g/Ha, evaluated after 13 days, scale 0-5.
Format: in vivo
Experimental: as §1
Molecule `CN1CC(O)N(c2cc(C(F)(F)F)c(-c3ccc(Cl)nc3)cn2)C1=O` (stereo not drawn) [Compound A21] has an ECHCG damage score of 5. `CC(=O)Nc1ccccc1-c1cnc(N2C(=O)N(C)CC2O)cc1C(F)(F)F` (stereo not drawn) [Compound A35] gave an ECHCG damage score of 2. With `CN1CC(O)N(c2cc(C(F)(F)F)c(-c3cncc(Cl)c3)cn2)C1=O` (stereo not drawn) [Compound A22] the ECHCG damage score was 5. Molecule `COc1ccc(-c2cnc(N3C(=O)N(C)CC3O)cc2C(F)(F)F)c(OC)n1` (stereo not drawn) [Compound A25] has an ECHCG damage score of 5. In the case of `CN1CC(O)N(c2cc(C(F)(F)F)c(-c3cnn(C)c3)cn2)C1=O` (stereo not drawn) [Compound A28], the ECHCG damage score is reported as 5. Molecule `CN1CC(O)N(c2cc(C(F)(F)F)c(-c3ccc(F)nc3)cn2)C1=O` (stereo not drawn) [Compound A32] has an ECHCG damage score of 5.

The molecules below were run on Abutilon theophrasti (assay: Pre-emergence herbicidal activity, ABUTH). Conditions: Application pre-emergence, 1000 g/Ha, evaluated after 13 days, scale 0-5.
Format: in vivo
Experimental: as §1
With `CN1CC(O)N(c2cc(C(F)(F)F)c(-c3ccc(Cl)nc3)cn2)C1=O` (stereo not drawn) [Compound A21] the ABUTH damage score was 5. Molecule `CC(=O)Nc1ccccc1-c1cnc(N2C(=O)N(C)CC2O)cc1C(F)(F)F` (stereo not drawn) [Compound A35] has an ABUTH damage score of 2. Work on `CN1CC(O)N(c2cc(C(F)(F)F)c(-c3cncc(Cl)c3)cn2)C1=O` (stereo not drawn) [Compound A22] yielded an ABUTH damage score of 5. For `COc1ccc(-c2cnc(N3C(=O)N(C)CC3O)cc2C(F)(F)F)c(OC)n1` (stereo not drawn) [Compound A25], the ABUTH damage score was 5. `CN1CC(O)N(c2cc(C(F)(F)F)c(-c3cnn(C)c3)cn2)C1=O` (stereo not drawn) [Compound A28] showed an ABUTH damage score of 5. `CN1CC(O)N(c2cc(C(F)(F)F)c(-c3ccc(F)nc3)cn2)C1=O` (stereo not drawn) [Compound A32] gave an ABUTH damage score of 5.

Each molecule was assayed on Setaria faberi (assay: Pre-emergence herbicidal activity, SETFA). Conditions: Application pre-emergence, 1000 g/Ha, evaluated after 13 days, scale 0-5.
Format: in vivo
Experimental: as §1
`CN1CC(O)N(c2cc(C(F)(F)F)c(-c3ccc(Cl)nc3)cn2)C1=O` (stereo not drawn) [Compound A21] was tested, and the SETFA damage score was 5. `CC(=O)Nc1ccccc1-c1cnc(N2C(=O)N(C)CC2O)cc1C(F)(F)F` (stereo not drawn) [Compound A35] showed an SETFA damage score of 2. Work on `CN1CC(O)N(c2cc(C(F)(F)F)c(-c3cncc(Cl)c3)cn2)C1=O` (stereo not drawn) [Compound A22] yielded an SETFA damage score of 5. Work on `COc1ccc(-c2cnc(N3C(=O)N(C)CC3O)cc2C(F)(F)F)c(OC)n1` (stereo not drawn) [Compound A25] yielded an SETFA damage score of 3. For `CN1CC(O)N(c2cc(C(F)(F)F)c(-c3cnn(C)c3)cn2)C1=O` (stereo not drawn) [Compound A28], the SETFA damage score was 4. Work on `CN1CC(O)N(c2cc(C(F)(F)F)c(-c3ccc(F)nc3)cn2)C1=O` (stereo not drawn) [Compound A32] yielded an SETFA damage score of 5.

These molecules were tested on Zea mays (assay: Pre-emergence herbicidal activity, ZEAMX). Conditions: Application pre-emergence, 1000 g/Ha, evaluated after 13 days, scale 0-5.
Format: in vivo
Experimental: as §1
`CN1CC(O)N(c2cc(C(F)(F)F)c(-c3ccc(Cl)nc3)cn2)C1=O` (stereo not drawn) [Compound A21] gave a ZEAMX damage score of 3. Molecule `CC(=O)Nc1ccccc1-c1cnc(N2C(=O)N(C)CC2O)cc1C(F)(F)F` (stereo not drawn) [Compound A35] has a ZEAMX damage score of 1. `CN1CC(O)N(c2cc(C(F)(F)F)c(-c3cncc(Cl)c3)cn2)C1=O` (stereo not drawn) [Compound A22] was tested, and the ZEAMX damage score was 3. In the case of `COc1ccc(-c2cnc(N3C(=O)N(C)CC3O)cc2C(F)(F)F)c(OC)n1` (stereo not drawn) [Compound A25], the ZEAMX damage score is reported as 2. For `CN1CC(O)N(c2cc(C(F)(F)F)c(-c3cnn(C)c3)cn2)C1=O` (stereo not drawn) [Compound A28], the ZEAMX damage score was 3. With `CN1CC(O)N(c2cc(C(F)(F)F)c(-c3ccc(F)nc3)cn2)C1=O` (stereo not drawn) [Compound A32] the ZEAMX damage score was 3.

What follows are molecules tested on Amaranthus retroflexus (assay: Post-emergence herbicidal activity, AMARE). Conditions: Application post-emergence, 1000 g/Ha, evaluated after 13 days, scale 0-5.
Format: in vivo
Experimental: (§2) Seeds of a variety of test species were sown in standard soil in pots. After 8 days cultivation (post-emergence) under controlled conditions in a glasshouse (at 24/16° C., day/night; 14 hours light; 65% humidity), the plants were sprayed with an aqueous spray solution derived from the formulation of the technical active ingredient in acetone/water (50:50) solution containing 0.5% Tween 20 (polyoxyethelyene sorbitan monolaurate, CAS RN 9005-64-5). The test plants were then grown in a glasshouse under controlled conditions (at 24/16° C., day/night; 14 hours light; 65% humidity) and watered twice daily. After 13 days, the test was evaluated (5=total damage to plant; 0=no damage to plant).
`CN1CC(O)N(c2cc(C(F)(F)F)c(-c3ccc(Cl)nc3)cn2)C1=O` (stereo not drawn) [Compound A21] showed an AMARE damage score of 5. `CC(=O)Nc1ccccc1-c1cnc(N2C(=O)N(C)CC2O)cc1C(F)(F)F` (stereo not drawn) [Compound A35] showed an AMARE damage score of 5. `CN1CC(O)N(c2cc(C(F)(F)F)c(-c3cncc(Cl)c3)cn2)C1=O` (stereo not drawn) [Compound A22] was tested, and the AMARE damage score was 5. In the case of `COc1ccc(-c2cnc(N3C(=O)N(C)CC3O)cc2C(F)(F)F)c(OC)n1` (stereo not drawn) [Compound A25], the AMARE damage score is reported as 5. In the case of `CN1CC(O)N(c2cc(C(F)(F)F)c(-c3cnn(C)c3)cn2)C1=O` (stereo not drawn) [Compound A28], the AMARE damage score is reported as 5. Molecule `CN1CC(O)N(c2cc(C(F)(F)F)c(-c3ccc(F)nc3)cn2)C1=O` (stereo not drawn) [Compound A32] has an AMARE damage score of 5.

What follows are molecules tested on Abutilon theophrasti (assay: Post-emergence herbicidal activity, ABUTH). Conditions: Application post-emergence, 1000 g/Ha, evaluated after 13 days, scale 0-5.
Format: in vivo
Experimental: as §2
`CN1CC(O)N(c2cc(C(F)(F)F)c(-c3ccc(Cl)nc3)cn2)C1=O` (stereo not drawn) [Compound A21] showed an ABUTH damage score of 5. In the case of `CC(=O)Nc1ccccc1-c1cnc(N2C(=O)N(C)CC2O)cc1C(F)(F)F` (stereo not drawn) [Compound A35], the ABUTH damage score is reported as 5. Work on `CN1CC(O)N(c2cc(C(F)(F)F)c(-c3cncc(Cl)c3)cn2)C1=O` (stereo not drawn) [Compound A22] yielded an ABUTH damage score of 5. `COc1ccc(-c2cnc(N3C(=O)N(C)CC3O)cc2C(F)(F)F)c(OC)n1` (stereo not drawn) [Compound A25] gave an ABUTH damage score of 5. In the case of `CN1CC(O)N(c2cc(C(F)(F)F)c(-c3cnn(C)c3)cn2)C1=O` (stereo not drawn) [Compound A28], the ABUTH damage score is reported as 5. For `CN1CC(O)N(c2cc(C(F)(F)F)c(-c3ccc(F)nc3)cn2)C1=O` (stereo not drawn) [Compound A32], the ABUTH damage score was 5.

What follows are molecules tested on Setaria faberi (assay: Post-emergence herbicidal activity, SETFA). Conditions: Application post-emergence, 1000 g/Ha, evaluated after 13 days, scale 0-5.
Format: in vivo
Experimental: as §2
`CN1CC(O)N(c2cc(C(F)(F)F)c(-c3ccc(Cl)nc3)cn2)C1=O` (stereo not drawn) [Compound A21] was tested, and the SETFA damage score was 5. `CC(=O)Nc1ccccc1-c1cnc(N2C(=O)N(C)CC2O)cc1C(F)(F)F` (stereo not drawn) [Compound A35] was tested, and the SETFA damage score was 4. `CN1CC(O)N(c2cc(C(F)(F)F)c(-c3cncc(Cl)c3)cn2)C1=O` (stereo not drawn) [Compound A22] was tested, and the SETFA damage score was 5. In the case of `COc1ccc(-c2cnc(N3C(=O)N(C)CC3O)cc2C(F)(F)F)c(OC)n1` (stereo not drawn) [Compound A25], the SETFA damage score is reported as 5. `CN1CC(O)N(c2cc(C(F)(F)F)c(-c3cnn(C)c3)cn2)C1=O` (stereo not drawn) [Compound A28] gave an SETFA damage score of 5. `CN1CC(O)N(c2cc(C(F)(F)F)c(-c3ccc(F)nc3)cn2)C1=O` (stereo not drawn) [Compound A32] showed an SETFA damage score of 5.

The molecules below were run on Echinochloa crus-galli (assay: Post-emergence herbicidal activity, ECHCG). Conditions: Application post-emergence, 1000 g/Ha, evaluated after 13 days, scale 0-5.
Format: in vivo
Experimental: as §2
With `CN1CC(O)N(c2cc(C(F)(F)F)c(-c3ccc(Cl)nc3)cn2)C1=O` (stereo not drawn) [Compound A21] the ECHCG damage score was 5. `CC(=O)Nc1ccccc1-c1cnc(N2C(=O)N(C)CC2O)cc1C(F)(F)F` (stereo not drawn) [Compound A35] gave an ECHCG damage score of 4. Molecule `CN1CC(O)N(c2cc(C(F)(F)F)c(-c3cncc(Cl)c3)cn2)C1=O` (stereo not drawn) [Compound A22] has an ECHCG damage score of 5. `COc1ccc(-c2cnc(N3C(=O)N(C)CC3O)cc2C(F)(F)F)c(OC)n1` (stereo not drawn) [Compound A25] was tested, and the ECHCG damage score was 5. In the case of `CN1CC(O)N(c2cc(C(F)(F)F)c(-c3cnn(C)c3)cn2)C1=O` (stereo not drawn) [Compound A28], the ECHCG damage score is reported as 5. For `CN1CC(O)N(c2cc(C(F)(F)F)c(-c3ccc(F)nc3)cn2)C1=O` (stereo not drawn) [Compound A32], the ECHCG damage score was 5.

Each molecule was assayed on Zea mays (assay: Post-emergence herbicidal activity, ZEAMX). Conditions: Application post-emergence, 1000 g/Ha, evaluated after 13 days, scale 0-5.
Format: in vivo
Experimental: as §2
`CN1CC(O)N(c2cc(C(F)(F)F)c(-c3ccc(Cl)nc3)cn2)C1=O` (stereo not drawn) [Compound A21] gave a ZEAMX damage score of 5. `CC(=O)Nc1ccccc1-c1cnc(N2C(=O)N(C)CC2O)cc1C(F)(F)F` (stereo not drawn) [Compound A35] gave a ZEAMX damage score of 1. `CN1CC(O)N(c2cc(C(F)(F)F)c(-c3cncc(Cl)c3)cn2)C1=O` (stereo not drawn) [Compound A22] showed a ZEAMX damage score of 5. `COc1ccc(-c2cnc(N3C(=O)N(C)CC3O)cc2C(F)(F)F)c(OC)n1` (stereo not drawn) [Compound A25] showed a ZEAMX damage score of 2. For `CN1CC(O)N(c2cc(C(F)(F)F)c(-c3cnn(C)c3)cn2)C1=O` (stereo not drawn) [Compound A28], the ZEAMX damage score was 5. In the case of `CN1CC(O)N(c2cc(C(F)(F)F)c(-c3ccc(F)nc3)cn2)C1=O` (stereo not drawn) [Compound A32], the ZEAMX damage score is reported as 5.
